Test results published in PubChem BioAssay AID330 (DTP/NCI, 2004).
Several values for one entry are separate records, joined by “and”; a condition that tells them apart may be missing. Equal values may be shown once. Inconclusive results and toxic doses are left out.

Test system: P388 leukemia ip, CD2F1 mice, survival T/C
Experiment: NCI In Vivo Anticancer Drug Screen. Data for tumor model P388 Leukemia (intraperitoneal) in CD2F1 (CDF1) mice
Settings: higher = longer survival
How it was run: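 Mice carrying the transplanted tumor received test compound or vehicle. Survival was recorded in each group, and the value is the treated-group measurement divided by that of the vehicle-treated control group.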

[1] = endpoint: median survival time, dose: 25.0 mg/kg/injection, schedule: Q04DX003 (ip), vehicle: saline with Tween-80
[2] = endpoint: median survival time, dose: 50.0 mg/kg/injection, schedule: Q04DX003 (ip), vehicle: saline with Tween-80
[3] = endpoint: median survival time, dose: 100.0 mg/kg/injection, schedule: Q04DX003 (ip), vehicle: saline with Tween-80
[4] = endpoint: median survival time, dose: 200.0 mg/kg/injection, schedule: Q04DX003 (ip), vehicle: saline with Tween-80
[5] = endpoint: median survival time, dose: 50.0 mg/kg/injection, schedule: Q01DX005 (ip), vehicle: saline
[6] = endpoint: median survival time, dose: 50.0 mg/kg/injection, schedule: Q01DX009 (ip), vehicle: Klucel (hydroxypropylcellulose) (HPC)
[7] = endpoint: median survival time, dose: 100.0 mg/kg/injection, schedule: Q01DX009 (ip), vehicle: Klucel (hydroxypropylcellulose) (HPC)
[8] = endpoint: median survival time, dose: 200.0 mg/kg/injection, schedule: Q01DX009 (ip), vehicle: Klucel (hydroxypropylcellulose) (HPC)
[9] = endpoint: median survival time, dose: 50.0 mg/kg/injection, schedule: Q01DX005 (ip), vehicle: saline with Tween-80
[10] = endpoint: median survival time, dose: 100.0 mg/kg/injection, schedule: Q01DX005 (ip), vehicle: saline with Tween-80
[11] = endpoint: median survival time, dose: 25.0 mg/kg/injection, schedule: Q04DX002 (ip), vehicle: saline with Tween-80
[12] = endpoint: median survival time, dose: 50.0 mg/kg/injection, schedule: Q01DX009 (ip), vehicle: saline

C[n+]1cccc(C2=CCCC2)c1
T/C (endpoint: median survival time, dose: 3.13 mg/kg/injection, schedule: Q01DX009 (ip), vehicle: saline): 109 % of control
T/C (endpoint: median survival time, dose: 6.25 mg/kg/injection, schedule: Q01DX009 (ip), vehicle: saline): 100 % of control
T/C (endpoint: median survival time, dose: 12.5 mg/kg/injection, schedule: Q01DX009 (ip), vehicle: saline): 100 % of control
T/C (endpoint: median survival time, dose: 12.5 mg/kg/injection, schedule: Q04DX003 (ip), vehicle: water): 102 % of control
T/C (endpoint: median survival time, dose: 25.0 mg/kg/injection, schedule: Q01DX009 (ip), vehicle: saline): 100 % of control
T/C [1]: 93 % of control
T/C (endpoint: median survival time, dose: 25.0 mg/kg/injection, schedule: Q04DX003 (ip), vehicle: water): 97 % of control
T/C [2]: 92 % of control
T/C [3]: 97 % of control
T/C [4]: 105 % of control

CCCCCCCCCCCCNC(=O)[C@@]1(O)[C@H](O)C2(CC)C=CCN3CCC4(c5cc([C@@]6(C(=O)OC)CC7CN(CCc8c6[nH]c6ccccc86)C[C@](O)(CC)C7)c(OC)cc5N(C)[C@H]41)C32 (some centres not stated)
T/C (endpoint: median survival time, dose: 18.0 mg/kg/injection, schedule: Q01DX005 (ip), vehicle: other): 157 % of control
T/C (endpoint: median survival time, dose: 30.0 mg/kg/injection, schedule: Q01DX005 (ip), vehicle: other): 182 % of control
T/C (endpoint: median survival time, dose: 30.0 mg/kg/injection, schedule: Q01DX005 (ip), vehicle: saline): 160 % of control
T/C (endpoint: median survival time, dose: 50.0 mg/kg/injection, schedule: Q01DX005 (ip), vehicle: other): 230 % of control
T/C [5]: 177 % of control

Cc1nnc(Cc2ccccc2)c2n[nH]c(C)c12
T/C [6]: 98 % of control
T/C [7]: 103 % of control
T/C [8]: 95 % of control

CC1(C)NN=C2C(=CC=C3NNC(C)(C)N32)n2cccc21
T/C [9]: 104 % of control
T/C [10]: 106 % of control

CCC/C(=N\N=C(N)N)c1ccc(Cl)cc1
T/C [11]: 100 % of control

COc1cccc2c1C(=O)c1c(O)c3c(c(O)c1C2=N)C[C@@](O)(C(C)=O)CC3OC1CC(N(Cc2ccccc2)Cc2ccccc2)C(O)C(C)O1 (some centres not stated)
T/C (endpoint: median survival time, dose: 12.5 mg/kg/injection, schedule: Q04DX003 (ip), vehicle: saline with Tween-80): 102 % of control
T/C [1]: 98 % of control
T/C [2]: 102 % of control and 123 % of control
T/C [3]: 111 % of control and 122 % of control
T/C [4]: 124 % of control
T/C (endpoint: median survival time, dose: 400.0 mg/kg/injection, schedule: Q04DX003 (ip), vehicle: saline with Tween-80): 106 % of control

COc1ccc(-n2c(-c3ccc(-n4c(C)nc5ccc(I)cc5c4=O)cc3)n[nH]c2=S)cc1
T/C (endpoint: median survival time, dose: 100.0 mg/kg/injection, schedule: Q04DX002 (ip), vehicle: Klucel (hydroxypropylcellulose) (HPC)): 103 % of control
T/C (endpoint: median survival time, dose: 200.0 mg/kg/injection, schedule: Q04DX002 (ip), vehicle: Klucel (hydroxypropylcellulose) (HPC)): 98 % of control
T/C (endpoint: median survival time, dose: 400.0 mg/kg/injection, schedule: Q04DX002 (ip), vehicle: Klucel (hydroxypropylcellulose) (HPC)): 98 % of control

CSc1ccc(NC(=O)Oc2ccccc2I)cc1
T/C [6]: 104 % of control
T/C [7]: 104 % of control
T/C [8]: 109 % of control

CS(=O)(=O)OCCCN(CCCOS(C)(=O)=O)CCCN1CCOCC1
T/C (endpoint: mean survival time, dose: 20.0 mg/kg/injection, schedule: Q01DX009 (ip), vehicle: saline): 247 % of control
T/C (endpoint: mean survival time, dose: 40.0 mg/kg/injection, schedule: Q01DX009 (ip), vehicle: saline): 238 % of control
T/C (endpoint: mean survival time, dose: 60.0 mg/kg/injection, schedule: Q01DX009 (ip), vehicle: saline): 263 % of control
T/C (endpoint: median survival time, dose: 20.0 mg/kg/injection, schedule: Q01DX009 (ip), vehicle: saline): 227 % of control
T/C (endpoint: median survival time, dose: 40.0 mg/kg/injection, schedule: Q01DX009 (ip), vehicle: saline): 222 % of control
T/C (endpoint: median survival time, dose: 60.0 mg/kg/injection, schedule: Q01DX009 (ip), vehicle: saline): 254 % of control

C=C(C)[C@@H]1CC[C@@H]2C(=CC[C@]3(C)C([C@H](C)CC/C=C(/C)C(=O)O)CC[C@@]23C)[C@@]1(C)CCC(=O)O (some centres not stated)
T/C (endpoint: median survival time, dose: 1.41 mg/kg/injection, schedule: Q01DX009 (ip), vehicle: saline + alcohol): 88 % of control
T/C (endpoint: median survival time, dose: 2.81 mg/kg/injection, schedule: Q01DX009 (ip), vehicle: saline + alcohol): 93 % of control
T/C (endpoint: median survival time, dose: 5.63 mg/kg/injection, schedule: Q01DX009 (ip), vehicle: saline + alcohol): 99 % of control
T/C (endpoint: median survival time, dose: 11.25 mg/kg/injection, schedule: Q01DX009 (ip), vehicle: saline + alcohol): 99 % of control
T/C (endpoint: median survival time, dose: 90.0 mg/kg/injection, schedule: Q01DX009 (ip), vehicle: saline + alcohol): 102 % of control

CC(=O)C(N=Nc1cc([N+](=O)[O-])cc(S(=O)(=O)O)c1O)C(=O)Nc1ccccc1.[Cr] (configuration not stated)
T/C [12]: 107 % of control
T/C (endpoint: median survival time, dose: 100.0 mg/kg/injection, schedule: Q01DX009 (ip), vehicle: saline): 99 % of control
T/C (endpoint: median survival time, dose: 200.0 mg/kg/injection, schedule: Q01DX009 (ip), vehicle: saline): 97 % of control

CCn1cc(C(=O)O)c(=O)c2cc(Cl)c(-n3cccc3)cc21
T/C (endpoint: median survival time, dose: 60.0 mg/kg/injection, schedule: Q01DX005 (ip), vehicle: saline with Tween-80): 95 % of control
T/C (endpoint: median survival time, dose: 120.0 mg/kg/injection, schedule: Q01DX005 (ip), vehicle: saline with Tween-80): 99 % of control
T/C (endpoint: median survival time, dose: 240.0 mg/kg/injection, schedule: Q01DX005 (ip), vehicle: saline with Tween-80): 94 % of control

CC(C)=CCc1cc(C2COc3cc4c(c(O)c3C2=O)C=CC(C)(C)O4)c(O)cc1O (configuration not stated)
T/C (endpoint: median survival time, dose: 8.0 mg/kg/injection, schedule: Q01DX009 (ip), vehicle: Klucel (hydroxypropylcellulose) (HPC)): 98 % of control
T/C (endpoint: median survival time, dose: 16.0 mg/kg/injection, schedule: Q01DX009 (ip), vehicle: Klucel (hydroxypropylcellulose) (HPC)): 101 % of control
T/C (endpoint: median survival time, dose: 32.0 mg/kg/injection, schedule: Q01DX009 (ip), vehicle: Klucel (hydroxypropylcellulose) (HPC)): 100 % of control
T/C (endpoint: median survival time, dose: 64.0 mg/kg/injection, schedule: Q01DX009 (ip), vehicle: Klucel (hydroxypropylcellulose) (HPC)): 98 % of control

Cc1c2ccncc2c(CNC(=O)CCC(=O)NCc2c3cnccc3c(C)c3c2c2ccccc2n3C)c2c3ccccc3n(C)c12
T/C (endpoint: median survival time, dose: 6.25 mg/kg/injection, schedule: Q04DX002 (ip), vehicle: saline with Tween-80): 108 % of control
T/C (endpoint: median survival time, dose: 12.5 mg/kg/injection, schedule: Q04DX002 (ip), vehicle: saline with Tween-80): 103 % of control
T/C [11]: 102 % of control
T/C (endpoint: median survival time, dose: 50.0 mg/kg/injection, schedule: Q04DX002 (ip), vehicle: saline with Tween-80): 102 % of control

COC(=O)C[Si](C)(C)C
T/C [9]: 105 % of control
T/C [10]: 98 % of control
T/C (endpoint: median survival time, dose: 200.0 mg/kg/injection, schedule: Q01DX005 (ip), vehicle: saline with Tween-80): 95 % of control

CC(C)(C)N1CCC1CN (configuration not stated)
T/C (endpoint: median survival time, dose: 25.0 mg/kg/injection, schedule: Q01DX005 (ip), vehicle: saline): 90 % of control
T/C [5]: 100 % of control
T/C (endpoint: median survival time, dose: 100.0 mg/kg/injection, schedule: Q01DX005 (ip), vehicle: saline): 104 % of control
T/C (endpoint: median survival time, dose: 200.0 mg/kg/injection, schedule: Q01DX005 (ip), vehicle: saline): 100 % of control

COC(=O)/C(=C1/OC(=O)C(c2ccccc2)=C1O)c1ccccc1
T/C (endpoint: median survival time, dose: 6.25 mg/kg/injection, schedule: Q01DX009 (ip), vehicle: Klucel (hydroxypropylcellulose) (HPC)): 99 % of control
T/C (endpoint: median survival time, dose: 12.5 mg/kg/injection, schedule: Q01DX009 (ip), vehicle: Klucel (hydroxypropylcellulose) (HPC)): 94 % of control
T/C (endpoint: median survival time, dose: 25.0 mg/kg/injection, schedule: Q01DX009 (ip), vehicle: Klucel (hydroxypropylcellulose) (HPC)): 99 % of control
T/C [6]: 93 % of control
T/C [12]: 95 % of control

COC(=O)CN(C)P(=O)(N1CC1)N1CC1
T/C (endpoint: median survival time, dose: 1.87 mg/kg/injection, schedule: Q01DX005 (ip), vehicle: saline): 107 % of control
T/C (endpoint: median survival time, dose: 3.75 mg/kg/injection, schedule: Q01DX005 (ip), vehicle: saline): 124 % of control
T/C (endpoint: median survival time, dose: 7.5 mg/kg/injection, schedule: Q01DX005 (ip), vehicle: saline with Tween-80): 198 % of control
T/C (endpoint: median survival time, dose: 15.0 mg/kg/injection, schedule: Q01DX005 (ip), vehicle: saline): 197 % of control

CCCCCCOC(=O)CC1CC(C(C)=O)C1(C)C (configuration not stated)
T/C [6]: 94 % of control
T/C [7]: 106 % of control
T/C [8]: 109 % of control
T/C (endpoint: median survival time, dose: 400.0 mg/kg/injection, schedule: Q01DX009 (ip), vehicle: Klucel (hydroxypropylcellulose) (HPC)): 117 % of control

CC([CH2][Sn]([CH3])([Cl])[c]1ccccc1)c1ccccc1 (configuration not stated)
T/C (endpoint: median survival time, dose: 12.5 mg/kg/injection, schedule: Q04DX003 (ip), vehicle: saline): 98 % of control
T/C (endpoint: median survival time, dose: 25.0 mg/kg/injection, schedule: Q04DX003 (ip), vehicle: saline): 103 % of control
T/C (endpoint: median survival time, dose: 50.0 mg/kg/injection, schedule: Q04DX003 (ip), vehicle: saline): 94 % of control
T/C [3]: 98 % of control
